Measurements: patent publication US20140227741A1, “Biological Systems for Production of Highest Quality Proteins” (Mediterranean Institute for Life Sciences, priority 2012, published 2014)

Legend:
[1] = test system: protein carbonylation (PC) amount; assay: Effect of 1 mM trolox on protein carbonylation (PC) amount; assay type: cell-based, E. coli
Description: (§1) The functional defects of proteins, correlating with their oxidative damage (carbonylation), can be suppressed by antioxidants in proportion to the extent of the decrease in protein carbonylation. This is illustrated by the effects of trolox (6-hydroxy-2,5,7,8-tetramethylchroman-2-carboxylic acid) on the reduction of ROS species levels and PC levels as given in Table 2.
The procedure for the quantification of protein carbonylation by ELISA method is as follows. The steps of protein extraction are as described in Example 1 (steps 1 and 2). Protein […] concentration is determined and adjusted so that the proteins are loaded into ELISA wells at 10 μg/mL. Adsorbed proteins are derivatized by using 12 μg/mL DNPH. Derivatization of adsorbed proteins is followed by detection of derivatized dinitrophenol (DNP)-carbonyl by a rabbit anti-DNP primary antibody (Sigma, D9656) and goat anti-rabbit secondary antibody conjugated to HRP (Jackson ImmunoResearch, 111-035-14). Stocks of antibodies were prepared at ˜1 ug/uL and used at 1:7000 dilutions.

[2] = test system: reactive oxygen species (ROS) level; assay: Effect of 1 mM trolox on reactive oxygen species (ROS) level; assay type: cell-based, E. coli
Description: as §1

Cc1c(C)c2c(c(C)c1O)CCC(C)(C(=O)O)O2 (stereo not drawn) [trolox, 6-hydroxy-2,5,7,8-tetramethylchroman-2-carboxylic acid]
PC reduction ([1]; strain wt): 0.26
PC reduction ([1]; strain ΔdnaK): 0.25
PC reduction ([1]; strain Δtig): 0.33
ROS reduction ([2]; strain wt): 0.41
ROS reduction ([2]; strain ΔdnaK): 0.41
ROS reduction ([2]; strain Δtig): 0.45
